# Source: US20120264231A1, “ASSAY FOR ORAI CALCIUM CHANNEL REGULATORS” (IMMUNE DISEASE INSTITUTE, INC., priority 2009, published 2012)
# Columns and labels:
# ORAI1 = ORAI1 (Homo sapiens, UniProt Q96D31); test: Fura-2 Ca^2+ flux assay, sec6-4 secretory vesicles with ORAI1; assay type: biochemical; parameters: the ORAI functional fragment is ORAI1 (65-301), ORAI1 (65-87), or full length ORAI1; made in house; host or cells: S. cerevisiae NY17 (sec6-4), isolated secretory vesicles, vector pBEVY-GU
# Procedure: (§1) It was next asked whether STIM-ORAI protein-protein interaction is sufficient to open the ORAI Ca^2+ channel. Vesicles obtained from S cerevisiae expressing ORAI were incubated under conditions where Fura-2 was the principal Ca^2+ buffer in the extravesicular solution in order to monitor Ca^2+ efflux (Meyer, T., et al., Biochemistry 29, 32-37 (1990)).
# Vesicles carrying ORAI 1 were isolated from S cerevisiae strain NY1 7 according to a standard protocol (Coury, L. A., et al., Methods Enzymol 306, 169-186 (1999); Nakamoto, R. K., et al., J Biol Chem 266, 7940-7949 (1991)). Efflux of Ca^2+ elicited by STIM1^CT fragments was detected by suspending the vesicles in a buffer containing Fura-2 as principal Ca^2+ buffer, and monitoring the Fura-2 fluorescence excitation spectrum (Meyer, T., et al., Biochemistry 29, 32-37 (1990)). As a complementary approach, ORAI 1 was coexpressed with a Ca^2+ sensor cameleon D3 cpV or cameleon D4 cpV53 that was targeted to the vesicles, and changes in intravesicular [Ca^2+] were detected as changes in FRET between CFP and YFP of the sensor.
# S cerevisiae strain NY17 featuring the temperature-sensitive sec6-4 mutation was used for protein expression and purification of secretory vesicles as described (Nakamoto, R. K., et al., J Biol Chem 266, 7940-7949 (1991); Coury, L. A., et al., Methods Enzymol 306, 169-186 (1999)). Cells were grown to midlog phase at 25° C. in uracil-deficient synthetic complete medium containing glucose, which was subsequently exchanged for galactose to induce transgene expression over a period of 8 hours. The temperature was then switched to 37° C. for 3 hours to force intracellular accumulation of secretory vesicles. Cells were collected by centrifugation at 4,000×g for 5 min at 4° C., washed once in ice-cold water, resuspended at a concentration of 50-60 OD600 units/mL in 10 mM DTT, 100 mM Tris pH 9.4, and shaken gently at room temperature for 10 min. Cells were pelleted and resuspended at 50-60 OD600 units/mL in spheroplast buffer (1.4 M sorbitol, 50 mM K2HPO4 pH 7.5, 10 mM NaN3, 40 mM β-mercaptoethanol) containing Zymolyase 20T (50 units per g of yeast wet weight) and incubated for up to 1 h at 37° C. Spheroplasts were harvested at 3,000×g for 5 min at 4° C., resuspended in spheroplast buffer containing 10 mM MgCl2 and 1 mg/ml Concanavalin A at a density corresponding to 50 OD600 units/mL of the starting culture, and gently shaken at 4° C. for 15 min. […] Myc-tagged ORAI1 was detected in Western blots using the murine anti-Myc monoclonal antibody 9E10. […]
# [1] = Fura-2 Ca^2+ flux assay, control vesicles; assay type: biochemical, S cerevisiae; details: STIM 1 cytoplasmic fragments 2 μM
# Procedure: as §1
# S cerevisiae strain NY17 featuring the temperature-sensitive sec6-4 mutation was used for protein expression and purification of secretory vesicles as described (Nakamoto, R. K., et al., J Biol Chem 266, 7940-7949 (1991); Coury, L. A., et al., Methods Enzymol 306, 169-186 (1999)). Cells were grown to midlog phase at 25° C. in uracil-deficient synthetic complete medium containing glucose, which was subsequently exchanged for galactose to induce transgene expression over a period of 8 hours. The temperature was then switched to 37° C. for 3 hours to force intracellular accumulation of secretory vesicles. […] Myc-tagged ORAI1 was detected in Western blots using the murine anti-Myc monoclonal antibody 9E10. […]
# Fura-2 spectra were recorded at ambient temperature, 22-25° C., in 20 mM Tris pH 7.4, 100 mM KCl, containing 10 μM metal-free Fura-2. Excitation spectra were recorded by scanning from 300-450 nm while monitoring emission at 510 nm, using a 2-4 nm slitwidth for both excitation and emission. […]
# [2] = STIM 1 cytoplasmic fragments 2 μM
# ORAI1, sequence (Q96D31 2-301): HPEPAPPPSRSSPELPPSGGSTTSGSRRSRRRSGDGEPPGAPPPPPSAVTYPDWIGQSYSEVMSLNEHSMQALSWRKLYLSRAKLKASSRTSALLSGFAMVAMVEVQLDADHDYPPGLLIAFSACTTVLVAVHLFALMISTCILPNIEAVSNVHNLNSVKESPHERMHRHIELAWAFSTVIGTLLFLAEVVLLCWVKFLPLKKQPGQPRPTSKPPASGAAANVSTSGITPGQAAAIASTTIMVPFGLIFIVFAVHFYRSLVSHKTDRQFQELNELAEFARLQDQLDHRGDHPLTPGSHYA
Compound,Ca^2+ efflux from vesicles with ORAI (Fura-2 excitation spectrum) (ORAI1; ionomycin 20 μM),Ca^2+ efflux from vesicles with ORAI (Fura-2 excitation spectrum) (ORAI1; [2]),Ca^2+ release from control vesicles (Fura-2) [1]
"C[C@H](CCC(=O)O)C[C@H](C)C[C@H](C)C(=O)/C=C(\O)[C@H](C)C[C@H](C)C/C=C/[C@@H](C)[C@@H](O)[C@@H](C)[C@@H](O)C[C@@H]1CC[C@@](C)([C@H]2CC[C@@](C)([C@@H](C)O)O2)O1 [ionomycin, reference compound]",release of Ca^2+ to the extravesicular solution,,
"STIM1 (233-463): truncated mouse STIM1 cytoplasmic fragment, residues 233-463, His-tagged recombinant protein",,had little effect,
"STIM1 (233-498): truncated mouse STIM1 cytoplasmic fragment, residues 233-498, His-tagged recombinant protein",,elicited efflux of Ca^2+,neither STIM 1 fragment was effective
"STIM1^CT: cytoplasmic region of STIM1, mouse residues 233-685, His-tagged recombinant protein expressed in E coli",,elicited efflux of Ca^2+,neither STIM 1 fragment was effective
